Patent publication US6586457B2, “Methods for inhibiting bone resorption” (Merck & Co., Inc., priority 1998, dated 2003)
Entries after “also recorded” stand apart in the source; their conditions may differ.

Tests used:
EP4 mRNA [1] = assay: EP4 mRNA levels in vivo in bone tissue after systemic administration (Northern blot); set-up: species or system rat
Description: For mRNA localization experiments, 5-week old Sprague-Dawley rats (Charles River) are euthanized by CO2, their tibiae and calvariae are excised, cleaned of soft tissues and frozen immediately in liquid nitrogen. For EP4 regulation experiments, 6-week old rats are given a single injection of either vehicle (7% ethanol in sterile water) or an anabolic dose of PGE2 (Cayman Chemical, Ann Arbor, Mich.), 3-6 mg/kg in the same vehicle) intraperitoneally. Animals are euthenized at several time points post-injection and their tibiae and calvariae, as well as samples from lung and kidney tissues are frozen in liquid nitrogen. Total RNA is extracted from the tibial metaphysis or diaphysis and calvaria using a guanidinium isothiocyanate-phenol-chloroform method after pulverizing frozen bone samples by a tissue homogenizer. See P. Chomczynski et al., Single-step method of RNA isolation by acid guanidium thiocyanate-phenol-chloroform extraction., Analyt Biochem, 162, 156-159 (1987), which is incorporated by reference herein in its entirety. RNA samples ([…]) are separated on 0.9% agarose/formaldehyde gels and transferred onto nylon membranes (Boehringer Mannheim, Germany). Membranes are prehybridized in Hybrisol I (Oncor, Gaithersburg, Md.) and 0.5 mg/ml sonicated salmon sperm DNA (Boehringer) at 42° C. for 3 hours and are hybridized at 42° C. with rat EP2 and mouse EP4 cDNA probes labeled with [^32P]-dCTP (Amersham, Buckinghamshire, UK) by random priming using the rediprime kit (Amersham). After hybridization, membranes are washed 4 times in 2×SSC+0.1% SDS at room temperature for a total of 1 hour and once with 0.2×SSC+0.1% SDS at 55° C. for 1 hour and then exposed to Kodak XAR 2 film at −70° C. using intensifying screens. After developing the films, bound probes are removed twice with 0.1% SDS at 80° C. and membranes are hybridized with a human GAPDH (Glyceraldehyde 3-Phosphate Dehydrogenase) cDNA probe (purchased from Clontech, Palo Alto, Calif.) for loading control. To examine if PGE2 regulates EP4 mRNA levels in vivo in bone tissue, […] male rats are injected with PGE2 (3-6 mg/Kg).

RCT-3 cells = assay: Intracellular cAMP in RCT-3 cells; format: cell-based, rat
Description: (§1) RCT-1 and RCT-3 are clonal cell lines immortalized by SV-40 large T antigen from cells released from fetal rat calvair by a cmbination collagenase/hyaluronidase digestion. RCT-1 cells, derived from cells released during the first 10 minutes of digestion (fraction I), are cultured in RPMI 1640 medium (BRL) with 10% fetal bovine serum and 0.4 mg/ml G418 (BRL). […] RCT-3 cells, immortalized from osteoblast-enriched fraction III cells, are cultured in F-12 medium (BRL) with 5% Fetal bovine serum and 0.4 mg/ml G418. TRAB-11 cells are also immortalized by SV40 large T antigen from adult rat tibia and are cultured in RPMI 1640 medium with 10% FBS and 0.4 mg/ml G418. ROS 17/2.8 rat osteosarcoma cells are cultured in F-12 containing 5% FBS. Osteoblast-enriched (fraction III) primary fetal rat calvaria cells are obtained by collagenase/hyaluronidase digestion of calvariae of 19 day-old rat fetuses. See Rodan et al., Growth stimulation of rat calvaria osteoblastic cells by acidic FGF, Endocrinology, 121, 1919-1923 (1987), which is incorporated by reference herein in its entirety. Cells are released during 30-50 minutes digestion (fraction III) and are cultured in F-12 medium containing 5% FBS. […]

EP2 mRNA [2] = assay: EP2 mRNA in vivo in bone tissue after systemic administration; details: RP-1 cells and rat bone tissue
Description: For mRNA localization experiments, 5-week old Sprague-Dawley rats (Charles River) are euthanized by CO2, their tibiae and calvariae are excised, cleaned of soft tissues and frozen immediately in liquid nitrogen. For EP4 regulation experiments, 6-week old rats are given a single injection of either vehicle (7% ethanol in sterile water) or an anabolic dose of PGE2 (Cayman Chemical, Ann Arbor, Mich.), 3-6 mg/kg in the same vehicle) intraperitoneally. Animals are euthenized at several time points post-injection and their tibiae and calvariae, as well as samples from lung and kidney tissues are frozen in liquid nitrogen. Total RNA is extracted from the tibial metaphysis or diaphysis and calvaria using a guanidinium isothiocyanate-phenol-chloroform method after pulverizing frozen bone samples by a tissue homogenizer. See P. Chomczynski et al., Single-step method of RNA isolation by acid guanidium thiocyanate-phenol-chloroform extraction., Analyt Biochem, 162, 156-159 (1987), which is incorporated by reference herein in its entirety. RNA samples ([…]) are separated on 0.9% agarose/formaldehyde gels and transferred onto nylon membranes (Boehringer Mannheim, Germany). […]

TRAB-11 cells = assay: Intracellular cAMP in TRAB-11 cells; format: cell-based, rat
Description: as §1

EP4 mRNA [3] = assay: EP4 mRNA levels in RP-1 periosteal cells (Northern blot); format: cell-based, rat; details: 10^-6 M
Description: (§2) RP-1 periosteal cells are spontaneously immortalized from primary cultures of periosteal cells from tibae of 4-week old Sprague-Dawley rats and are cultured in DMEM (BRL, Gaithersburg, Md.) with 10% fetal bovine serum (JRH Biosciences, Lenexa, Kans.). […] Total RNA is extracted from the tibial metaphysis or diaphysis and calvaria using a guanidinium isothiocyanate-phenol-chloroform method after pulverizing frozen bone samples by a tissue homogenizer. See P. Chomczynski et al., Single-step method of RNA isolation by acid guanidium thiocyanate-phenol-chloroform extraction., Analyt Biochem, 162, 156-159 (1987), which is incorporated by reference herein in its entirety. RNA samples ([…]) are separated on 0.9% agarose/formaldehyde gels and transferred onto nylon membranes (Boehringer Mannheim, Germany). Membranes are prehybridized in Hybrisol I (Oncor, Gaithersburg, Md.) and 0.5 mg/ml sonicated salmon sperm DNA (Boehringer) at 42° C. for 3 hours and are hybridized at 42° C. with rat EP2 and mouse EP4 cDNA probes labeled with [^32P]-dCTP (Amersham, Buckinghamshire, UK) by random priming using the rediprime kit (Amersham). After hybridization, membranes are washed 4 times in 2×SSC+0.1% SDS at room temperature for a total of 1 hour and once with 0.2×SSC+0.1% SDS at 55° C. for 1 hour and then exposed to Kodak XAR 2 film at −70° C. using intensifying screens. […]

EP4 mRNA [4] = assay: EP4 mRNA levels in RCT-3 cells (Northern blot); format: cell-based, rat
Description: RCT-1 and RCT-3 are clonal cell lines immortalized by SV-40 large T antigen from cells released from fetal rat calvair by a cmbination collagenase/hyaluronidase digestion. RCT-1 cells, derived from cells released during the first 10 minutes of digestion (fraction I), are cultured in RPMI 1640 medium (BRL) with 10% fetal bovine serum and 0.4 mg/ml G418 (BRL). […] RCT-3 cells, immortalized from osteoblast-enriched fraction III cells, are cultured in F-12 medium (BRL) with 5% Fetal bovine serum and 0.4 mg/ml G418. TRAB-11 cells are also immortalized by SV40 large T antigen from adult rat tibia and are cultured in RPMI 1640 medium with 10% FBS and 0.4 mg/ml G418. ROS 17/2.8 rat osteosarcoma cells are cultured in F-12 containing 5% FBS. Osteoblast-enriched (fraction III) primary fetal rat calvaria cells are obtained by collagenase/hyaluronidase digestion of calvariae of 19 day-old rat fetuses. See Rodan et al., Growth stimulation of rat calvaria osteoblastic cells by acidic FGF, Endocrinology, 121, 1919-1923 (1987), which is incorporated by reference herein in its entirety. Cells are released during 30-50 minutes digestion (fraction III) and are cultured in F-12 medium containing 5% FBS. Total RNA is extracted from the tibial metaphysis or diaphysis and calvaria using a guanidinium isothiocyanate-phenol-chloroform method after pulverizing frozen bone samples by a tissue homogenizer. […]

EP2 mRNA [5] = assay: EP2 mRNA expression in RP-1 cells (Northern blot); format: cell-based, rat
Description: as §2

EP4 mRNA [6] = assay: In situ hybridization of EP4 expression in tibial bone marrow cells; format: in vivo, rat; details: rats, single anabolic dose
Description: For mRNA localization experiments, 5-week old Sprague-Dawley rats (Charles River) are euthanized by CO2, their tibiae and calvariae are excised, cleaned of soft tissues and frozen immediately in liquid nitrogen. For EP4 regulation experiments, 6-week old rats are given a single injection of either vehicle (7% ethanol in sterile water) or an anabolic dose of PGE2 (Cayman Chemical, Ann Arbor, Mich.), 3-6 mg/kg in the same vehicle) intraperitoneally. Animals are euthenized at several time points post-injection and their tibiae and calvariae, as well as samples from lung and kidney tissues are frozen in liquid nitrogen.
Frozen tibiae are sectioned coronally at […] thickness and sections are mounted on charged slides (Probe On Plus, Fisher Scientific, Springfield, N.J.) and are kept at −70° C. until hybridization. cRNA probes are labeled with ^35S-UTPgS (ICN, Costa Mesa, Calif.) using a Riboprobe II kit (Promega Madison, Wis.). Hybridization is performed overnight at 50° C. […]
In situ hybridization is used in order to localize cells expressing EP4 in bone. In control experiment (vehicle-injected) rats, low expression of EP4 was detected in bone marrow cells. […]

ROS 17/2.8 cells = assay: Intracellular cAMP in ROS 17/2.8 cells; format: cell-based, rat
Description: as §1

[7] = rats, 3-6 mg/Kg, systemic injection
[8] = young adult rats, 3-6 mg/kg, systemic

SMILES: CCCCCC(O)/C=C/[C@H]1C(O)CC(=O)C1C/C=C\CCCC(=O)O (stereo partly shown) [PGE2]
- effect on EP4 mRNA levels in tibial diaphysis (EP4 mRNA [1]; [7]): rapidly increased EP4 mRNA levels
- time of peak of EP4 mRNA levels in tibial diaphysis after injection (EP4 mRNA [1]; [7]): 2 h
- effect on expression of EP4 in tibiae and calvariae (EP4 mRNA [1]; [8]): upregulates the expression of EP4
- time of peak of EP4 upregulation in tibiae and calvariae (EP4 mRNA [1]; [8]): 1 to 2 h
- effect on intracellular cAMP (RCT-3 cells): markedly induced
- induction of EP2 mRNA in RP-1 cells and bone tissue (EP2 mRNA [2]): does not include EP2 mRNA
- effect on intracellular cAMP (TRAB-11 cells): markedly induced
- effect on EP4 mRNA levels (EP4 mRNA [3]): rapidly increases EP4 mRNA levels; also recorded: increases the level of EP4 mRNA
- time of peak of EP4 mRNA levels after treatment (EP4 mRNA [3]): 2 h
- effect on EP4 mRNA levels (EP4 mRNA [4]): no effect on EP4 mRNA levels
- EP2 mRNA expression before or after treatment (EP2 mRNA [5]): not expressed
- effect on expression of EP4 in bone marrow cells (EP4 mRNA [6]): increasesd the expression of EP4
- effect on intracellular cAMP (ROS 17/2.8 cells): no effect on intracellular cAMP
